Target: T1, AMPK (A1/B2/G1) (Homo sapiens, UniProt Q13131)
T1 construct: purchased Thermo Fisher Scientific (Life Technologies) SelectScreen
Assay: SelectScreen LanthaScreen
Assay type: binding
Details: read-out: % displacement
Outline: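 Percent values come from Thermo SelectScreen profiling of NU5455, combining activity and binding assays. CSF1R was run in Z'LYTE format at Km app ATP, and CAMK1 in Adapta format with ATP listed at 10.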

T1 sequence (Q13131 whole entry): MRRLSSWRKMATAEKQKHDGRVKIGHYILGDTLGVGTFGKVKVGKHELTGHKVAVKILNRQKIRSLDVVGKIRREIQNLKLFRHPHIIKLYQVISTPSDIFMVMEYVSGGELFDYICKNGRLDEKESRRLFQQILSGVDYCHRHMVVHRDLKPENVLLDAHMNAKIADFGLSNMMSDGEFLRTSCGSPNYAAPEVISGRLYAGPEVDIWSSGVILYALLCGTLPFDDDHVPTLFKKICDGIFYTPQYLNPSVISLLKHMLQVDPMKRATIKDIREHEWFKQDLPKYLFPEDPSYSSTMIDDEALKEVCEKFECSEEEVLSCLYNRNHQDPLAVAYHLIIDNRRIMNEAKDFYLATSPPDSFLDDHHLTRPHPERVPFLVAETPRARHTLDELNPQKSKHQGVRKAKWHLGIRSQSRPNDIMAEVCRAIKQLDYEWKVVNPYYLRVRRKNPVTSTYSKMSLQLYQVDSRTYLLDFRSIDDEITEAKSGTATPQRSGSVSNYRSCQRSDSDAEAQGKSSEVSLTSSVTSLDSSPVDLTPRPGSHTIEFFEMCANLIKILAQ
T1 sequence (O43741 whole entry partner): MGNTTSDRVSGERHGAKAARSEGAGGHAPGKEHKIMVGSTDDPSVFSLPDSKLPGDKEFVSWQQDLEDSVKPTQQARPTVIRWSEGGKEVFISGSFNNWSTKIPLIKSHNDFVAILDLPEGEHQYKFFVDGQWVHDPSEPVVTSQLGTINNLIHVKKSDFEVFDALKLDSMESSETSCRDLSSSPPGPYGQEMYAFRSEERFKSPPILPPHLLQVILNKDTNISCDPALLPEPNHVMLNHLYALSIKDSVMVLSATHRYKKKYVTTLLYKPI
T1 sequence (P54619 whole entry partner): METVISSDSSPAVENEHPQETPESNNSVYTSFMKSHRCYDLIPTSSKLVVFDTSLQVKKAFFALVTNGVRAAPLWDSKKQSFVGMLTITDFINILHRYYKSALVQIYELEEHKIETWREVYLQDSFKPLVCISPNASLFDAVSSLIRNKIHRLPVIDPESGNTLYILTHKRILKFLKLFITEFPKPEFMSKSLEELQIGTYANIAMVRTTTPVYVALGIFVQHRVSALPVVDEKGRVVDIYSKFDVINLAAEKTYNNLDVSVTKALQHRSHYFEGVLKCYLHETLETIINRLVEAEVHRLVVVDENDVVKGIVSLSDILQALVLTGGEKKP

SMILES: CN(C(=O)CN1CCOCC1)c1ccc2sc3c(-c4cccc5c(=O)cc(N6CC7CCC(C6)O7)oc45)cccc3c2c1 [NU5455]
- inhibition at 1 µM: 0.9%

Reference: article PMC6934184, “Selective DNA-PKcs inhibition extends the therapeutic index of localized radiotherapy and chemotherapy” (The Journal of Clinical Investigation, 2019)
